Values belong to the compound of their own block, whether it stands above or below them. Active and inactive are the calls of the source. No cut-off for these calls is given here.
Assays:
[1] = Induction of apoptosis in human MCF-10A cells assessed as viable cells incubated for 24 hrs by Annexin V-FITC/PI staining based flow cytometry (reference value: 96.0 %); assay type: toxicity, cell-based; conditions: read-out: Activity
MCF-10A [2] = assay: Inhibition of mitochondrial membrane potential in human MCF-10A cells incubated for 24 hrs by JC-1 dye based analysis; assay type: toxicity, cell-based
MDA-MB-231 [3] = assay: Cytotoxicity against human MDA-MB-231 cells incubated for 24 hrs by MTT assay; assay type: functional, cell-based; conditions: MDA-MB-231, 24 h
MDA-MB-231 [4] = assay: Antitumor activity against human MDA-MB-231 cells xenografted in BALB/c nude mouse assessed as tumor growth inhibition at 20 mg/kg, iv administered every two days for 21 days; assay type: functional, organism-based; conditions: time 21.0 day
MDA-MB-231 [5] = assay: Induction of DNA damage in human MDA-MB-231 cells assessed as increase in gamma-H2AX level incubated for 24 hrs by immunofluorescence based analysis; assay type: functional, cell-based
MDA-MB-231 [6] = assay: Cytotoxicity against human MDA-MB-231 cells incubated for 48 hrs by MTT assay; assay type: functional, cell-based; conditions: MDA-MB-231, 48 h
[7] = Toxicity in BALB/c nude mouse xenografted with human MDA-MB-231 cells assessed as body weight change at 20 mg/kg, iv administered every two days for 21 days; assay type: organism-based; conditions: in vivo, 504 h, time 21 day
MDA-MB-231 [8] = assay: Antitumor activity against human MDA-MB-231 cells xenografted in BALB/c nude mouse at 20 mg/kg, iv administered every two days for 21 days relative to control; assay type: functional; conditions: MDA-MB-231, 504 h, time 21 day, read-out: TGI
MDA-MB-231 [9] = assay: Antitumor activity against human MDA-MB-231 cells assessed as sphere-forming efficiency incubated for 6 hrs followed by medium replacement without compound measured after 6 days by microscopic analysis (reference value: 1.07 %); assay type: functional
MDA-MB-231 [10] = assay: Induction of apoptosis in human MDA-MB-231 cells incubated for 24 hrs by TUNEL assay; assay type: functional, cell-based
MDA-MB-231 [11] = assay: Inhibition of mitochondrial membrane potential in human MDA-MB-231 cells assessed as decrease in ATP level incubated for 24 hrs by luminescence based analysis; assay type: functional, cell-based
MDA-MB-231 [12] = assay: Antitumor activity against human MDA-MB-231 cells assessed as reduction in sphere volume incubated for 6 hrs followed by medium replacement without compound measured after 6 days by microscopic analysis; assay type: functional, cell-based
[13] = Lipophilicity, logP of compound; assay type: physicochemical; conditions: octanol/water; read-out: logP
MDA-MB-231 [14] = assay: Induction of apoptosis in human MDA-MB-231 cells assessed as early apoptotic cells incubated for 24 hrs by Annexin V-FITC/PI staining based flow cytometry (reference value: 0.22 %); assay type: functional
[15] = Lipophilicity, logD of compound at pH 7.4; assay type: physicochemical; conditions: buffer, read-out: logD
MCF-10A [16] = assay: Induction of apoptosis in human MCF-10A cells assessed as late apoptotic cells incubated for 24 hrs by Annexin V-FITC/PI staining based flow cytometry (reference value: 2.16 %); assay type: toxicity, cell-based
MDA-MB-231 [17] = assay: Cytotoxicity against human MDA-MB-231 cells assessed as inhibition of cell viability incubated for 48 hrs by MTT assay; assay type: functional, cell-based; conditions: MDA-MB-231, 48 h
MDA-MB-231 [18] = assay: Induction of apoptosis in human MDA-MB-231 cells assessed as increase in caspase-3 activity incubated for 24 hrs; assay type: functional, cell-based
MDA-MB-231 [19] = assay: Antitumor activity against human MDA-MB-231 cells xenografted in BALB/c nude mouse assessed as tumor size at 20 mg/kg, iv administered every two days for 21 days (reference value: 1940 mm3); assay type: functional; conditions: time 21 day
[20] = Solubility of compound in double distilled H2O; assay type: physicochemical; conditions: double distilled water
MDA-MB-231 [21] = assay: Inhibition of mitochondrial membrane potential in human MDA-MB-231 cells incubated for 24 hrs by JC-1 dye based analysis; assay type: functional, cell-based
MCF-10A [22] = assay: Cytotoxicity against human MCF-10A cells assessed as inhibition of cell viability at 150 uM incubated for 48 hrs by MTT assay; assay type: toxicity, cell-based
MCF-10A [23] = assay: Induction of apoptosis in human MCF-10A cells assessed as increase in caspase-3 activity incubated for 24 hrs; assay type: toxicity, cell-based
MDA-MB-231 [24] = assay: Induction of apoptosis in human MDA-MB-231 cells assessed as late apoptotic cells incubated for 24 hrs by Annexin V-FITC/PI staining based flow cytometry (reference value: 0.17 %); assay type: functional
MCF-10A [25] = assay: Induction of apoptosis in human MCF-10A cells assessed as early apoptotic cells incubated for 24 hrs by Annexin V-FITC/PI staining based flow cytometry (reference value: 1.66 %); assay type: toxicity, cell-based
[26] = Solubility of compound in PBS buffer at pH 7.4; assay type: physicochemical
[27] = Selectivity index, ratio of inhibition of DNA synthesis in human MCF-10A cells to inhibition of DNA synthesis in human MDA-MB-231 cells; assay type: toxicity, cell-based; conditions: MCF-10A cells and MDA-MB-231 cells
MCF-10A [28] = assay: Induction of apoptosis in human MCF-10A cells assessed as necrotic cells incubated for 24 hrs by Annexin V-FITC/PI staining based flow cytometry (reference value: 0.17 %); assay type: toxicity, cell-based
MDA-MB-231 [29] = assay: Induction of apoptosis in human MDA-MB-231 cells assessed as necrotic cells incubated for 24 hrs by Annexin V-FITC/PI staining based flow cytometry (reference value: 0.065 %); assay type: functional
MDA-MB-231 [30] = assay: Induction of apoptosis in human MDA-MB-231 cells assessed as viable cells incubated for 24 hrs by Annexin V-FITC/PI staining based flow cytometry (reference value: 99.5 %); assay type: functional
MDA-MB-231 [31] = assay: Inhibition of mitochondrial membrane potential in human MDA-MB-231 cells assessed as increase in intracellular calcium ion level incubated for 24 hrs by Fluo-4 AM dye based analysis; assay type: functional, cell-based
MDA-MB-231 [32] = assay: Cytotoxicity against human MDA-MB-231 cells incubated for 12 hrs by MTT assay; assay type: functional, cell-based; conditions: MDA-MB-231, 12 h
A549 = assay: Cytotoxicity against human A549 cells in presence of Cu2+ by MTT assay; assay type: functional, cell-based
MDA-MB-231 [33] = assay: Cytotoxicity against human MDA-MB-231 cells in presence of Cu2+ by MTT assay; assay type: functional, cell-based

- logP [13]: 2.93
- logD [15]: 1.72
- solubility [20]: 35.5 µg/mL
- solubility [26]: 34.2 µg/mL
Structure (SMILES): OC[C@H]1O[C@@H](Oc2ccc(C[n+]3cccc4cccc(O)c43)cc2)[C@H](O)[C@@H](O)[C@@H]1O.[Cl-]
- viability at 24 h [1]: 87.4%
- inhibition (INH) (MCF-10A [2]): Non-toxic
- IC50 (MDA-MB-231 [3]): 31 µM
- inhibition (MDA-MB-231 [4]): Active
- Activity (MDA-MB-231 [5]): Active
- IC50 (MDA-MB-231 [6]): 17.9 µM
- Activity [7]: Non-toxic
- inhibition in vivo at 20 mg/kg (MDA-MB-231 [8]): 49.6%
- Activity (MDA-MB-231 [9]): 0.26%
- Activity (MDA-MB-231 [10]): Active
- inhibition (MDA-MB-231 [11]): Active
- Activity (MDA-MB-231 [12]): Active
- Activity (MDA-MB-231 [14]): 36.1%
- Activity (MCF-10A [16]): 6.44%
- IC50 (MDA-MB-231 [17]): 26.2 µM
- Activity (MDA-MB-231 [18]): Dose-dependent-effect
- Activity (MDA-MB-231 [19]): 970 mm3
- inhibition (MDA-MB-231 [21]): Active
- Activity (MCF-10A [22]): Non-toxic
- Activity (MCF-10A [23]): Non-toxic
- Activity (MDA-MB-231 [24]): 10.5%
- Activity (MCF-10A [25]): 5.79%
- selectivity ratio [27]: 5.7
- Activity (MCF-10A [28]): 0.4%
- Activity (MDA-MB-231 [29]): 0.043%
- Activity (MDA-MB-231 [30]): 53.4%
- inhibition (MDA-MB-231 [31]): Active

Structure (SMILES): O=C(CCc1ccc(O)cc1)c1c(O)cc(O)cc1O[C@@H]1O[C@H](CO)[C@@H](O)[C@H](O)[C@H]1O [PHLORIZIN]
- IC50 (MDA-MB-231 [32]): 26.2 µM

Structure (SMILES): OC[C@H]1O[C@@H](Oc2cccc3cccnc23)[C@H](O)[C@@H](O)[C@@H]1O
- IC50 (A549): 5.56 µM
- IC50 (MDA-MB-231 [33]): 5.56 µM
